33 compounds from PubChem BioAssay AID651859 (Sanford-Burnham Center for Chemical Genomics, 2012) can be followed below.

The source made the active and inactive calls. No rule for the calls is given here. A value given as a limit tells only on which side of the number the result lay.

The experiment has as its system cell viability, luminescent cytotoxicity assay. The experiment can be described thus: cell-killing effect of antagonist analogs – luminescence, set 2, cytotoxicity control for Gli-SUFU antagonist project, SAR follow-up (AID 651859).

Broadly, the IC50 is the concentration at which inhibition is half-maximal. Take `O=C(Nc1cc(NCC2CCCO2)ncn1)c1ccccc1` (stereo not drawn): the IC50 was > 11.7 µM (inactive).
In the case of `CCCCN(C)c1cc(NC(=O)c2ccccc2)ncn1`, the IC50 is > 11.7 µM (inactive).
Take `CC(C)CNc1cc(NC(=O)c2ccccc2)ncn1`: the IC50 is > 11.7 µM (inactive).
Then `O=C(Nc1cc(N2CCCCC2)ncn1)c1ccco1`, with > 11.7 µM (inactive); and `O=C(Nc1cc(N2CCCCC2)ncn1)c1ccc(Cl)cc1`, with > 11.7 µM (inactive); and `O=C(Nc1cc(N2CCCCC2)ncn1)c1ccccc1`, with > 11.7 µM (inactive).
Then `O=C(Nc1cc(N2CCCCC2)ncn1)c1cccs1`, with > 11.7 µM (inactive).
The figure for `O=C(Nc1cc(N2CCCCC2)ncn1)c1ccccc1C(F)(F)F` is > 11.7 µM (inactive); for `O=C(Nc1cc(N2CCCCC2)ncn1)c1cccc2ccccc12` it is > 11.7 µM (inactive); for `CC(C)(C)Nc1cc(NC(=O)c2ccccc2)ncn1` it is > 11.7 µM (inactive).
Consider `N#Cc1cccc(C(=O)Nc2cc(N3CCCCC3)ncn2)c1`, for which the IC50 is > 11.7 µM (inactive).
The figure for `COc1cccc(C(=O)Nc2cc(N3CCCCC3)ncn2)c1` is > 11.7 µM (inactive).
The figure for `CC1CCCCN1c1cc(NC(=O)c2ccccc2)ncn1` (stereo not drawn) is > 11.7 µM (inactive); for `O=C(Nc1cc(N2CCCCCC2)ncn1)c1ccccc1` it is > 11.7 µM (inactive); for `CCOc1ccc(-c2nc(CSCC(=O)NC3CC3)c(C)o2)cc1` it is > 11.7 µM (inactive).
The figure for `O=C(Nc1cc(N2CCCCC2)ncn1)c1ccc(C(F)(F)F)cc1` is > 11.7 µM (inactive); for `O=C(Nc1cc(N2CCCCC2)ncn1)c1ccc2ccccc2c1` it is > 11.7 µM (inactive); for `Cc1ccc(C(=O)Nc2cc(N3CCCCC3)ncn2)cc1` it is > 11.7 µM (inactive).
For the compound `O=C(Nc1cc(N2CCNCC2)ncn1)c1ccccc1`, the IC50 is > 11.7 µM (inactive).
In the case of `CC1CCN(c2cc(NC(=O)c3ccccc3)ncn2)CC1`, the IC50 was > 11.7 µM (inactive).
Then `CCOc1ccc(S(=O)(=O)NCc2ccncc2)cc1NC(=O)c1ccccc1`, with > 11.7 µM (inactive).
Then `CC(C)(C)OC(=O)N1CCN(c2cc(NC(=O)c3ccccc3)ncn2)CC1`, with > 11.7 µM (inactive); and `O=C(Nc1cc(N2CCSCC2)ncn1)c1ccccc1`, with > 11.7 µM (inactive); and `O=C(Nc1cc(N2CCCCC2)ncn1)c1ccccc1Cl`, with > 11.7 µM (inactive).
The figure for `O=C(Nc1cc(N2CCCCC2)ncn1)c1ccsc1` is > 11.7 µM (inactive).
As for `CN1CCN(c2cc(NC(=O)c3ccccc3)ncn2)CC1`, the IC50 is > 11.7 µM (inactive).
Then `O=C(Nc1cc(N2CCOCC2)ncn1)c1ccccc1`, with > 11.7 µM (inactive); and `N#Cc1ccc(C(=O)Nc2cc(N3CCCCC3)ncn2)cc1`, with > 11.7 µM (inactive).
Then `COc1ccccc1C(=O)Nc1cc(N2CCCCC2)ncn1`, with > 11.7 µM (inactive); and `CC(C)Nc1cc(NC(=O)c2ccccc2)ncn1`, with > 11.7 µM (inactive); and `O=C(Nc1cc(N2CCCCC2)ncn1)c1cc2ccccc2s1`, with > 11.7 µM (inactive).
In the case of `CCCCNc1cc(NC(=O)c2ccccc2)ncn1`, the IC50 was > 11.7 µM (inactive).
In the case of `CCC(C)Nc1cc(NC(=O)c2ccccc2)ncn1` (stereo not drawn), the IC50 is > 11.7 µM (inactive).
